Consider 16 compounds from US10155751B2, “Pyrazolyl-substituted heteroaryls and their use as medicaments” (Boehringer Ingelheim International GmbH, priority 2015, dated 2018).

Where two headings read alike, the source gives them in different places.

Test [1] has as its target Recombinant human Aurora B (amino acids 1-344) (Homo sapiens (Human), UniProt Q96GD4). Briefly: Aurora B kinase test (ADP Glo). Type of test: biochemical. As to the method: The activity of the Aurora B kinase protein was determined using the ADP Glo® Luminescence Kinase test (Promega; V9103X). In this homogeneous test the amount of ADP remaining after the kinase reaction is quantified by a luciferin-luciferase reaction using luminescence. The luminescence signal obtained correlates with the amount of ADP still present and thus correlates with the activity of the protein kinase.
The test compounds were dissolved in 100% DMSO at a concentration of 10 mM and diluted in DMSO to a concentration of 5 mM. Serial Dilution is done in 1:10 steps in 100% DMSO. All further dilutions of the substances were carried out with test buffer (50 mM Hepes, pH 7.5, 10 mM MgCl2, 1 mM EGTA, 60 μM Ultra Pure ATP, 0.01% Brij35, 0.1% BSA, 5 mM 8-Glycerophosphate) until a concentration was reached which was 2.5 times above the final test concentration (final concentration of the compounds: 50 μM to 0.005 nM). 4 μl aliquots of these dilutions were transferred into a 384-well Optiplate (Perkin Elmer, #6007290). His-Aurora B was diluted to 125 nM in the test buffer and 4 μl of this dilution were used in the kinase test (final concentration of Aurora B=50 nM in a total volume of 10 μl). After 15 minutes incubation at room temperature 2 μl of 250 μM substrate ([[…]]; University of Dundee) in test buffer were added to each well and the incubation was continued for a further 60 minutes at room temperature.
(§1) Positive controls are the reaction mixtures that contain no test substance; negative controls (blanks) are reaction mixtures that contain no kinase.
After 60 minutes, 10 μl ADP-Glo® solution (ADP-Glo Reagent #V912B Promega) (heated to room temperature) were added to each well and incubation was continued for a further 40. minutes. Then 20 μl Kinase detection mix (Detection Buffer #V913B Promega; Kinase Detection Substrate #V914B Promega) were added and incubated for 40 minutes at room temperature. The plates were read in Envision Luminescence Reader (Perkin-Elmer).
(§2) The output file of the reader is a csv file that contains the well number and measured RLU. For data evaluation and calculation, the measurement of the negative control was set as 0% ctrl and the measurement of the positive control was set as 100% ctrl. Based on this values the % value for the measurement of each substance concentration can be calculated using an Assay Explorer software (e.g. Accelrys). Normally, the % ctrl values calculated are between 0% and 100% values but may also occur outside these limits in individual cases based on variability or compound characteristics. The IC50-values were calculated from the % ctrl values using Assay Explorer software. Calculation: [y=(a−d)/(1+(x/c)^b)+d], a=low value, d=high value; x=conc M; c=IC50 M; b=hill; y=% ctrl.
Background: ADP-Glo first removes unused ATP, then detects ADP through luciferase.

Test [2] deals with Recombinant human FLT3 (amino acids 564-958) (Homo sapiens (Human), UniProt P36888). Briefly: FLT3 kinase test (ADP Glo). Type of test: biochemical. As to the method:
The activity of the FLT3 kinase protein was determined using the ADP Glo® Luminescence Kinase test (Promega; V9103X). In this homogeneous test the amount of ADP remaining after the kinase reaction is quantified by a luciferin-luciferase reaction using luminescence. The luminescence signal obtained correlates with the amount of ADP still present and thus correlates with the activity of the protein kinase.
The test compounds were dissolved in 100% DMSO at a concentration of 10 mM and diluted in DMSO to a concentration of 5 mM. Serial Dilution is done in 1:10 steps in 100% DMSO. All further dilutions of the substances were carried out with test buffer (50 mM Hepes, pH 7.5, 10 mM MgCl2, 1 mM EGTA, 0.01% Brij35, 0.1% BSA) until a concentration was reached which was 2.5 times above the final test concentration (final concentration of the compounds: 50 μM to 0.005 nM). […] FLT3 enzyme was diluted to 5 nM in the test buffer and 4 μl of this dilution were used in the kinase test (final concentration of FLT3=2 nM in a total volume of 10 μl). After 60 minutes incubation at room temperature 2 μl mixture of 2.5 mg/ml substrate (Poly-Glu/Tyr; Sigma #P0275) and 2.5 mM ultra-pure ATP (Promega #V915B) in test buffer were added to each well and the incubation was continued for a further 90 minutes at room temperature.
as §1
After 90 minutes, 10 μl ADP-Glo® solution (ADP-Glo Reagent #V912B Promega) (heated to room temperature) were added to each well and incubation was continued for a further 60. minutes. Then 20 μl Kinase detection mix (Detection Buffer #V913B Promega; Kinase Detection Substrate #V914B Promega) were added and incubated for 40 minutes at room temperature. The plates were read in Envision Luminescence Reader (Perkin-Elmer).
as §2, with “IC50 values” for “IC50-values”, “x=conc.” for “x=conc”

Where [3] appears, read: read-out: AURB inhibition IC50-value (chapter 5.3).
Setting [4] is: read-out: FLT3 inhibition IC50-value (chapter 5.4).

Sequence of Recombinant human Aurora B (amino acids 1-344) (Q96GD4 whole entry, the tested form may be a part): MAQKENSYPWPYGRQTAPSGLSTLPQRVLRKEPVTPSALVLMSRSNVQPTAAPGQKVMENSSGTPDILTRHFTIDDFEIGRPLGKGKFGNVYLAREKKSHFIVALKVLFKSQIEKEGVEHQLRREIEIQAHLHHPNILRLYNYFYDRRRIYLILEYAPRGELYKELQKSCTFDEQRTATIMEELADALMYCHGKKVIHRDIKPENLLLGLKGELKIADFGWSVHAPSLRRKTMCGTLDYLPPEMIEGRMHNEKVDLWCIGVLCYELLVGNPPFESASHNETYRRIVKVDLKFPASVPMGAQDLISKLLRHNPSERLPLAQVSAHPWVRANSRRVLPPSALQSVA
Sequence of Recombinant human FLT3 (amino acids 564-958) (P36888 564-958): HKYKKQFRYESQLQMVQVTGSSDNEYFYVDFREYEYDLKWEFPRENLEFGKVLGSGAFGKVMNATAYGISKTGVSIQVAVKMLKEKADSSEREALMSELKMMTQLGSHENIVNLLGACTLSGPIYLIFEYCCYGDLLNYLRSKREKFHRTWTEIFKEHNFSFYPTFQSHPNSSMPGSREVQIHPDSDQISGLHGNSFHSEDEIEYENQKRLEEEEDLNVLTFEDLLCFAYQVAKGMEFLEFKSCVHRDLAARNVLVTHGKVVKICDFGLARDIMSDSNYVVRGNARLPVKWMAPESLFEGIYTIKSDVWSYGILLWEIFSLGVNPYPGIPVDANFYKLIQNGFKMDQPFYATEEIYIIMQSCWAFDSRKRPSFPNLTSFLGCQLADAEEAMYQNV

In general, IC50 refers to the concentration at which inhibition is half-maximal. In the case of `C[C@@H](Oc1cc(-c2cnn(C3CCC(F)(F)C3)c2)cc2nn(C)c(F)c12)[C@H]1CNC(=O)C1` (stereo partly drawn) [Example 7], in test [1], the “selectivity ratio IC50(AURB)/IC50(SYK)” value came out at 20154. Moreover, the results for the IC50 in test [1] (setting [3]) and in test [2] (setting [4]) were 26.2 µM and 2.44 µM, respectively.
The corresponding values for `Cc1c2c(O[C@H](C)[C@H]3CNC(=O)C3)cc(-c3cnn([C@@H]4CCOC(C)(C)C4)c3)cc2nn1C` [Example 9, (R)-4-((R)-1-{6-[1-((R)-2,2-Dimethyl-tetrahydro-pyran-4-yl)-1H-pyrazol-4-yl]-2,3-dimethyl-2H-indazol-4-yloxy}-ethyl)-pyrrolidin-2-one] are 21219, 23.3 µM and 1.84 µM.
The corresponding values for `CC(C)n1cc(-c2cc(O[C@H](C)[C@H]3CNC(=O)C3)c3c(F)n(C)nc3c2)cn1` [Example 2, (R)-4-{(R)-1-[3-Fluoro-6-(1-isopropyl-1H-pyrazol-4-yl)-2-methyl-2H-indazol-4-yloxy]-ethyl}-pyrrolidin-2-one] are 23955, 31.1 µM and 2.83 µM.
As to `C[C@@H](Oc1nc(-c2cnn(C(C)(C)C)c2)cc2ncn(C)c12)[C@H]1CNC(=O)C1` [example 3A.02, on page 196 of WO15017610, reference compound], the “selectivity ratio IC50(AURB)/IC50(SYK)” value in test [1] amounted to 891. Besides, the IC50 was 1.69 µM in test [1] (setting [3]), 1.69 µM in test [1] (read-out: IC50(AURB)), 0.384 µM in test [2] (setting [4]) and 0.384 µM in test [2] (read-out: IC50(FLT3)).
Regarding `Cc1c2c(O[C@H](C)[C@H]3CNC(=O)C3)cc(-c3cnn(C(C)(C)C)c3)cc2nn1C` [Example 13, (R)-4-{(R)-1-[6-(1-tert-Butyl-1H-pyrazol-4-yl)-2,3-dimethyl-2H-indazol-4-yloxy]-ethyl}-pyrrolidin-2-one], the “selectivity ratio IC50(AURB)/IC50(SYK)” value in test [1] is listed as 39982. Moreover, the IC50 in test [1] (setting [3]) came to 36 µM; in test [2] (setting [4]), 5.22 µM.
With `Cc1c2c(O[C@H](C)[C@H]3CNC(=O)C3)cc(-c3cnn([C@H]4CO[C@@H]5CCCO[C@@H]54)c3)cc2nn1C` [Example 10, 4-(1-{6-[(R)-(3S,3aR,7aR)-1-(Hexahydro-furo[3,2-b]pyran-3-yl)-1H-pyrazol-4-yl]-2,3-dimethyl-2H-indazol-4-yloxy}-ethyl)-pyrrolidin-2-one], the “selectivity ratio IC50(AURB)/IC50(SYK)” value in test [1] is recorded as 10312. Besides, the IC50 stood at 34 µM in test [1] (setting [3]) and 2.02 µM in test [2] (setting [4]).
On to `Cc1c2c(O[C@H](C)[C@H]3CNC(=O)C3)cc(-c3cnn(C4CCC4)c3)cc2nn1C` [Example 21, (R)-4-{(R)-1-[6-(1-Cyclobutyl-1H-pyrazol-4-yl)-2,3-dimethyl-2H-indazol-4-yloxy]-ethyl}-pyrrolidin-2-one], for which, in test [1], the “selectivity ratio IC50(AURB)/IC50(SYK)” value is 14442. The IC50 in test [1] (setting [3]) was 17.3 µM; in test [2] (setting [4]) it was 2.21 µM.
The corresponding values for `Cc1c2c(O[C@H](C)[C@H]3CNC(=O)C3)cc(-c3cnn(CCF)c3)cc2nn1C` [Example 11, (R)-4-((R)-1-{6-[1-(2-Fluoro-ethyl)-1H-pyrazol-4-yl]-2,3-dimethyl-2H-indazol-4-yloxy}-ethyl)-pyrrolidin-2-one] are 20800, 31.2 µM and 3.48 µM.
As to `C[C@@H](Oc1cc(-c2cnn(CCC(F)(F)F)c2)cc2nn(C)c(F)c12)[C@H]1CNC(=O)C1` [Example 12, (R)-4-((R)-1-{3-Fluoro-2-methyl-6-[1-(3,3,3-trifluoro-propyl)-1H-pyrazol-4-yl]-2H-indazol-4-yloxy}-ethyl)-pyrrolidin-2-one], the “selectivity ratio IC50(AURB)/IC50(SYK)” value in test [1] is reported as 10207. Moreover, the IC50 is 29.6 µM in test [1] (setting [3]) and 5.03 µM in test [2] (setting [4]).
Consider `Cc1c2c(O[C@H](C)[C@H]3CNC(=O)C3)cc(-c3cnn(C(C)C)c3)cc2nn1C` [Example 18, (R)-4-{(R)-1-[6-(1-Isopropyl-1H-pyrazol-4-yl)-2,3-dimethyl-2H-indazol-4-yloxy]-ethyl}-pyrrolidin-2-one], for which the “selectivity ratio IC50(AURB)/IC50(SYK)” value in test [1] was determined as 18323. Further, the IC50 in test [1] (setting [3]) was 20.2 µM; in test [2] (setting [4]), 4.67 µM.
Consider `Cc1c2c(O[C@H](C)[C@H]3CNC(=O)O3)nc(-c3cnn(C(C)(C)C)c3)cc2nn1C` [Example 3, (R)-5-{(R)-1-[6-(1-tert-Butyl-1H-pyrazol-4-yl)-2,3-dimethyl-2H-pyrazolo[4,3-c]pyridin-4-yloxy]-ethyl}-oxazolidin-2-one], for which the “selectivity ratio IC50(AURB)/IC50(SYK)” value in test [1] is 15731. Besides, the IC50 in test [1] (setting [3]) was 31.5 µM; in test [2] (setting [4]) it was 1.34 µM.
Taken in the same sequence, the figures for `Cc1c2c(O[C@H](C)[C@H]3CNC(=O)C3)cc(-c3cnn(C4CC(C)(C)OC4(C)C)c3)cc2nn1C` (stereo partly drawn) [Example 16, (R)-4-((R)-1-{2,3-Dimethyl-6-[1-(2,2,5,5-tetramethyl-tetrahydro-furan-3-yl)-1H-pyrazol-4-yl]2H-indazol-4-yloxy}-ethyl)-pyrrolidin-2-one] were 14323, 44.4 µM and 3.49 µM.
The corresponding values for `Cc1c2c(O[C@H](C)[C@H]3CNC(=O)C3)cc(-c3cnn(C4CC4)c3)cc2nn1C` [Example 20, (R)-4-{(R)-1-[6-(1-Cyclopropyl-1H-pyrazol-4-yl)-2,3-dimethyl-2H-indazol-4-yloxy]-ethyl}-pyrrolidin-2-one] are 13932, 34.8 µM and 3.32 µM.
Taken in the same sequence, the figures for `C[C@@H](Oc1cc(-c2cnn(C3CC3)c2)cc2nn(C)c(F)c12)[C@H]1CNC(=O)C1` [Example 5, (R)-4-{(R)-1-[6-(1-Cycloprop-yl-1H-pyrazol-4-yl)-3-fluoro-2-methyl-2H-indazol-4-yloxy]-ethyl}-pyrrolidin-2-one] were 15152, 50 µM and 3.99 µM.
As for `Cc1cnn2cc(-c3cnn(C(C)(C)C)c3)nc(O[C@H](C)[C@H]3CNC(=O)C3)c12` [example 5.20 on page 506 of WO15017610, reference compound], the “selectivity ratio IC50(AURB)/IC50(SYK)” value in test [1] came out at 810. The IC50 came to 0.162 µM in test [1] (setting [3]), 0.162 µM in test [1] (read-out: IC50(AURB)), 0.043 µM in test [2] (setting [4]) and 0.043 µM in test [2] (read-out: IC50(FLT3)).
Regarding `Cc1cc2c(O[C@H](C)[C@H]3CNC(=O)C3)cc(-c3cnn(C(C)(C)C)c3)cn2n1` [example 6.60 on page 587 of WO15017610, reference compound], the “selectivity ratio IC50(AURB)/IC50(SYK)” value in test [1] is greater than 4850. Also, the IC50 in test [1] (setting [3]) was greater than 50 µM; in test [1] (read-out: IC50(AURB)), greater than 50 µM; in test [2] (setting [4]), 6.68 µM; in test [2] (read-out: IC50(FLT3)) it was 6.68 µM.
